Laboratory results as given in the NIST ThermoML archive (doi:10.1021/je200350a).

Test: xn = mol fraction of the nth substance listed
Conditions: 101 kPa, Liquid; for viscosity: Capillary tube (Ostwald / Ubbelohde) method

O=[N+]([O-])c1ccccc1 [nitrobenzene] + CC1CCCCC1
Conditions	mass density, 293.15 K [kg/m3]	mass density, 298.15 K [kg/m3]	mass density, 303.15 K [kg/m3]	mass density, 308.15 K [kg/m3]	viscosity, 293.15 K [mPa·s]	viscosity, 298.15 K [mPa·s]	viscosity, 303.15 K [mPa·s]	viscosity, 308.15 K [mPa·s]
x1 = 0.1422	820.2	816.2	812.4	808.2	0.785	0.735	0.6901	0.649
x1 = 0.2103	845.2	840.8	837.4	832.3	0.8282	0.7723	0.7233	0.6777
x1 = 0.3412	900.9	897.5	894.2	891	0.9436	0.8765	0.8177	0.7653
x1 = 0.404	919.6	915.6	912.8	909	0.9971	0.9244	0.8618	0.8054
x1 = 0.5249	973.2	970.2	965	962.6	1.125	1.042	0.9677	0.9044
x1 = 0.6397	1027	1022.7	1019.6	1016	1.266	1.172	1.089	1.015
x1 = 0.7489	1075.7	1071.6	1067.8	1062.9	1.416	1.312	1.218	1.136
x1 = 0.853	1123.6	1119.2	1114.5	1111.5	1.613	1.484	1.371	1.272
x1 = 0.9031	1150.8	1146.3	1142	1137.5	1.718	1.58	1.46	1.354

CCCCBr [1-bromobutane] + CC1CCCCC1
Conditions	mass density, 293.15 K [kg/m3]	mass density, 298.15 K [kg/m3]	mass density, 303.15 K [kg/m3]	mass density, 308.15 K [kg/m3]	viscosity, 293.15 K [mPa·s]	viscosity, 298.15 K [mPa·s]	viscosity, 303.15 K [mPa·s]	viscosity, 308.15 K [mPa·s]
x2 = 0.1014	1218.7	1212.2	1206.3	1198.2	0.6398	0.6033	0.5754	0.5463
x2 = 0.1535	1187.3	1180.4	1174.2	1167.5	0.6402	0.6034	0.5745	0.5458
x2 = 0.2607	1129.8	1123	1118.5	1111	0.6441	0.6066	0.5762	0.5462
x2 = 0.372	1071	1064.8	1059.4	1053.2	0.6465	0.6104	0.578	0.5479
x2 = 0.4293	1041	1035.5	1029.9	1024.4	0.6517	0.6152	0.5826	0.5516
x2 = 0.5473	978.8	973.2	967.8	962.5	0.6581	0.62	0.5854	0.554
x2 = 0.608	946.5	941.2	935.8	930.7	0.6622	0.6235	0.5882	0.5561
x2 = 0.7979	858.3	853.5	849	843.8	0.6877	0.6457	0.6074	0.5721
x2 = 0.8639	830	825.8	821.8	816.5	0.6993	0.6558	0.6166	0.5806
